From ChEMBL document CHEMBL1201861, “Genomics of Drug Sensitity in Cancer screening data, Wellcome Trust Sanger Institute”

How the values were obtained:
Assay in all cases: cells
Format in all cases: functional, cell-based, Homo sapiens
MMAC-SF = conditions: Homo sapiens, MMAC-SF;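 also: growth inhibition of human MMAC-SF cells, read out with a cell viability assay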
Description: SANGER: Inhibition of human MMAC-SF cell growth in a cell viability assay.

HCC2218 = conditions: Homo sapiens, HCC2218;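 also: cell viability assay read-out, with IC50 given as the concentration that inhibits growth of the cell line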
Description: SANGER: Inhibition of human HCC2218 cell growth in a cell viability assay.

J-RT3-T3-5 = conditions: Homo sapiens, J-RT3-T3-5;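 also: cell viability assay measuring growth inhibition of human J-RT3-T3-5 cells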
Description: SANGER: Inhibition of human J-RT3-T3-5 cell growth in a cell viability assay.

C2BBe1 = conditions: Homo sapiens, C2BBe1;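 also: growth inhibition of C2BBe1 cells, read out through a viability assay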
Description: SANGER: Inhibition of human C2BBe1 cell growth in a cell viability assay.

HC-1 = conditions: Homo sapiens, HC-1;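 also: growth inhibition of HC-1 cells measured by a cell viability assay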
Description: SANGER: Inhibition of human HC-1 cell growth in a cell viability assay.

ONS-76 = conditions: Homo sapiens, ONS-76;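 also: growth inhibition of human ONS-76 cells, read out with a cell viability assay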
Description: SANGER: Inhibition of human ONS-76 cell growth in a cell viability assay.

KU812 cell line = conditions: Homo sapiens, KU812;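 also: growth inhibition of KU812 cells, read out with a cell viability assay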
Description: SANGER: Inhibition of human KU812 cell growth in a cell viability assay.

DU-4475 = conditions: Homo sapiens, DU-4475
Description: SANGER: Inhibition of human DU-4475 cell growth in a cell viability assay.

GI-1 = conditions: Homo sapiens, GI-1;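 also: growth inhibition of human GI-1 cells, measured with a cell viability readout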
Description: SANGER: Inhibition of human GI-1 cell growth in a cell viability assay.

KLE = conditions: Homo sapiens, KLE;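 also: growth inhibition of human KLE cells, read out with a cell viability assay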
Description: SANGER: Inhibition of human KLE cell growth in a cell viability assay.

NCI-H82 = conditions: Homo sapiens, NCI-H82;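 also: growth inhibition of NCI-H82 cells, measured with a cell viability readout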
Description: SANGER: Inhibition of human NCI-H82 cell growth in a cell viability assay.

TE-6 = conditions: Homo sapiens, TE-6;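 also: growth inhibition of TE-6 cells, read out with a cell viability assay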
Description: SANGER: Inhibition of human TE-6 cell growth in a cell viability assay.

NCI-H1838 = conditions: Homo sapiens, NCI-H1838;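 also: growth inhibition of NCI-H1838 cells, determined with a cell viability readout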
Description: SANGER: Inhibition of human NCI-H1838 cell growth in a cell viability assay.

MZ1-PC = conditions: Homo sapiens, MZ1-PC;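 also: cell viability assay measuring growth inhibition of human MZ1-PC cells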
Description: SANGER: Inhibition of human MZ1-PC cell growth in a cell viability assay.

SK-LMS-1 = conditions: Homo sapiens, SK-LMS-1;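 also: growth inhibition of human SK-LMS-1 cells, read out with a cell viability assay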
Description: SANGER: Inhibition of human SK-LMS-1 cell growth in a cell viability assay.

QIMR-WIL = conditions: Homo sapiens, QIMR-WIL;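 also: growth inhibition of QIMR-WIL cells, read out with a cell viability assay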
Description: SANGER: Inhibition of human QIMR-WIL cell growth in a cell viability assay.

K5 = conditions: Homo sapiens, K5
Description: SANGER: Inhibition of human K5 cell growth in a cell viability assay.

NB13 = conditions: Homo sapiens, NB13;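 also: cell viability readout measuring growth inhibition of human NB13 cells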
Description: SANGER: Inhibition of human NB13 cell growth in a cell viability assay.

KP-N-YS = conditions: Homo sapiens, KP-N-YS;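 also: cell viability assay measuring inhibition of cell line growth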
Description: SANGER: Inhibition of human KP-N-YS cell growth in a cell viability assay.

COLO-824 = conditions: Homo sapiens, COLO-824
Description: SANGER: Inhibition of human COLO-824 cell growth in a cell viability assay.

LAMA-84 = conditions: Homo sapiens, LAMA-84;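 also: growth inhibition of LAMA-84 cells, read out with a cell viability assay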
Description: SANGER: Inhibition of human LAMA-84 cell growth in a cell viability assay.

OMC-1 = conditions: Homo sapiens, OMC-1;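 also: growth inhibition of the OMC-1 cell line, measured by a cell viability assay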
Description: SANGER: Inhibition of human OMC-1 cell growth in a cell viability assay.

SNB-75 = conditions: Homo sapiens, SNB-75;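 also: cell viability assay measuring growth inhibition of human SNB-75 cells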
Description: SANGER: Inhibition of human SNB75 cell growth in a cell viability assay.

LNCaP-Clone-FGC = conditions: Homo sapiens, LNCaP-Clone-FGC
Description: SANGER: Inhibition of human LNCaP-Clone-FGC cell growth in a cell viability assay.

SNU1 = conditions: Homo sapiens, SNU1;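 also: growth inhibition of human NCI-SNU-1 cells, measured with a cell viability assay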
Description: SANGER: Inhibition of human NCI-SNU-1 cell growth in a cell viability assay.

DEL = conditions: Homo sapiens, DEL;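 also: growth inhibition of the human DEL cell line, read out with a cell viability assay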
Description: SANGER: Inhibition of human DEL cell growth in a cell viability assay.

GOTO = conditions: Homo sapiens, GOTO;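 also: growth inhibition of GOTO cells, read out by a cell viability assay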
Description: SANGER: Inhibition of human GOTO cell growth in a cell viability assay.

BB49-HNC = conditions: Homo sapiens, BB49-HNC;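 also: cell viability assay read-out, reported as inhibition of BB49-HNC cell growth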
Description: SANGER: Inhibition of human BB49-HNC cell growth in a cell viability assay.

NCI-H1355 = conditions: Homo sapiens, NCI-H1355;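 also: growth inhibition of human NCI-H1355 cells, read out by a cell viability assay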
Description: SANGER: Inhibition of human NCI-H1355 cell growth in a cell viability assay.

IST-MES1 = conditions: Homo sapiens, IST-MES1;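 also: growth inhibition of IST-MES1 cells, measured with a cell viability assay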
Description: SANGER: Inhibition of human IST-MES1 cell growth in a cell viability assay.

no-10 = conditions: Homo sapiens;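 also: growth inhibition of no-10 cells, read out with a cell viability assay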
Description: SANGER: Inhibition of human no-10 cell growth in a cell viability assay.

IST-SL1 = conditions: Homo sapiens, IST-SL1;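 also: growth inhibition of human IST-SL1 cells, read out with a cell viability assay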
Description: SANGER: Inhibition of human IST-SL1 cell growth in a cell viability assay.

NCI-H226 = conditions: Homo sapiens, NCI-H226;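 also: cell viability read-out used to gauge growth inhibition of the cells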
Description: SANGER: Inhibition of human NCI-H226 cell growth in a cell viability assay.

NCI-H2126 = conditions: Homo sapiens, NCI-H2126;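 also: growth inhibition of the cancer cell line, determined with a cell viability readout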
Description: SANGER: Inhibition of human NCI-H2126 cell growth in a cell viability assay.

SF-268 = conditions: Homo sapiens, SF-268;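 also: growth inhibition of SF-268 cells determined with a cell viability assay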
Description: SANGER: Inhibition of human SF268 cell growth in a cell viability assay.

TGBC24TKB = conditions: Homo sapiens, TGBC24TKB;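 also: growth inhibition of human TGBC24TKB cells, read out with a cell viability assay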
Description: SANGER: Inhibition of human TGBC24TKB cell growth in a cell viability assay.

NKM-1 = conditions: Homo sapiens, NKM-1;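 also: growth inhibition of NKM-1 cells, read out with a cell viability assay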
Description: SANGER: Inhibition of human NKM-1 cell growth in a cell viability assay.

Becker = conditions: Homo sapiens, Becker;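 also: growth inhibition of Becker cells, read out with a cell viability assay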
Description: SANGER: Inhibition of human Becker cell growth in a cell viability assay.

DSH1 = conditions: Homo sapiens, DSH1;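 also: growth inhibition of human DSH1 cells, measured with a cell viability readout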
Description: SANGER: Inhibition of human DSH1 cell growth in a cell viability assay.

CCRF-CEM = conditions: Homo sapiens, CCRF-CEM;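 also: inhibition of CCRF-CEM cell growth, measured by a cell viability assay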
Description: SANGER: Inhibition of human CCRF-CEM cell growth in a cell viability assay.

RPMI-8866 = conditions: Homo sapiens, RPMI-8866
Description: SANGER: Inhibition of human RPMI-8866 cell growth in a cell viability assay.

EW-13 = conditions: Homo sapiens, EW-13;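 also: growth inhibition of EW-13 cells, read out with a cell viability assay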
Description: SANGER: Inhibition of human EW-13 cell growth in a cell viability assay.

NH-12 = conditions: Homo sapiens, NH-12;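 also: growth inhibition of NH-12 cells, read out with a cell viability assay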
Description: SANGER: Inhibition of human NH-12 cell growth in a cell viability assay.

RCC10RGB = conditions: Homo sapiens, RCC10RGB;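 also: growth inhibition of human RCC10RGB cells, read out by a cell viability assay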
Description: SANGER: Inhibition of human RCC10RGB cell growth in a cell viability assay.

NCI-H510A = conditions: Homo sapiens, NCI-H510A;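 also: growth inhibition of NCI-H510A cells, read out with a cell viability assay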
Description: SANGER: Inhibition of human NCI-H510A cell growth in a cell viability assay.

L-428 = conditions: Homo sapiens, L-428
Description: SANGER: Inhibition of human L-428 cell growth in a cell viability assay.

OVCAR-4 = conditions: Homo sapiens, OVCAR-4;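 also: growth inhibition of human OVCAR-4 cells, measured with a cell viability assay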
Description: SANGER: Inhibition of human OVCAR-4 cell growth in a cell viability assay.

GCIY = conditions: Homo sapiens, GCIY;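 also: growth inhibition of the human GCIY cell line, read out by a cell viability assay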
Description: SANGER: Inhibition of human GCIY cell growth in a cell viability assay.

MN-60 = conditions: Homo sapiens, MN-60;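 also: growth inhibition of the MN-60 cell line, determined with a cell viability assay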
Description: SANGER: Inhibition of human MN-60 cell growth in a cell viability assay.

COc1cc(-c2nn([C@H]3CC[C@H](N4CCN(C(C)=O)CC4)CC3)c3ncnc(N)c23)ccc1NC(=O)c1cc2ccccc2n1C
IC50 (MMAC-SF): > 5120 nM
IC50 (HCC2218): > 5120 nM
IC50 (J-RT3-T3-5): > 5120 nM
IC50 (C2BBe1): 757 nM
IC50 (HC-1): 3190 nM
IC50 (ONS-76): > 5120 nM
IC50 (KU812 cell line): > 5120 nM
IC50 (DU-4475): > 5120 nM
IC50 (GI-1): > 5120 nM
IC50 (KLE): 2500 nM
IC50 (NCI-H82): > 5120 nM
IC50 (TE-6): > 5120 nM
IC50 (NCI-H1838): > 5120 nM
IC50 (MZ1-PC): 595 nM
IC50 (SK-LMS-1): > 5120 nM
IC50 (QIMR-WIL): 2870 nM
IC50 (K5): > 5120 nM
IC50 (NB13): > 5120 nM
IC50 (KP-N-YS): > 5120 nM
IC50 (COLO-824): > 5120 nM
IC50 (LAMA-84): 147 nM
IC50 (OMC-1): > 5120 nM
IC50 (SNB-75): 340 nM
IC50 (LNCaP-Clone-FGC): > 5120 nM
IC50 (SNU1): > 5120 nM
IC50 (DEL): > 5120 nM
IC50 (GOTO): > 5120 nM
IC50 (BB49-HNC): > 5120 nM
IC50 (NCI-H1355): > 5120 nM
IC50 (IST-MES1): 1400 nM
IC50 (no-10): 2180 nM
IC50 (IST-SL1): > 5120 nM
IC50 (NCI-H226): > 5120 nM
IC50 (NCI-H2126): > 5120 nM
IC50 (SF-268): 3960 nM
IC50 (TGBC24TKB): 808 nM
IC50 (NKM-1): > 5120 nM
IC50 (Becker): 4210 nM
IC50 (DSH1): > 5120 nM
IC50 (CCRF-CEM): > 5120 nM
IC50 (RPMI-8866): > 5120 nM
IC50 (EW-13): > 5120 nM
IC50 (NH-12): > 5120 nM
IC50 (RCC10RGB): > 5120 nM
IC50 (NCI-H510A): 4760 nM
IC50 (L-428): > 5120 nM
IC50 (OVCAR-4): 1040 nM
IC50 (GCIY): 4030 nM
IC50 (MN-60): > 5120 nM

OCCCNc1cc(-c2ccnc(Nc3cccc(Cl)c3)n2)ccn1
IC50 (MMAC-SF): > 256 nM
IC50 (HCC2218): > 256 nM
IC50 (J-RT3-T3-5): 83.2 nM
IC50 (C2BBe1): 154 nM
IC50 (HC-1): 52.2 nM
IC50 (ONS-76): 76.1 nM
IC50 (KU812 cell line): 45 nM
IC50 (DU-4475): 140 nM
IC50 (GI-1): 78.1 nM
IC50 (KLE): 55.6 nM
IC50 (NCI-H82): > 256 nM
IC50 (TE-6): > 256 nM
IC50 (NCI-H1838): > 256 nM
IC50 (MZ1-PC): 42.7 nM
IC50 (SK-LMS-1): 135 nM
IC50 (QIMR-WIL): 48.8 nM
IC50 (K5): 18.8 nM
IC50 (NB13): 126 nM
IC50 (KP-N-YS): > 256 nM
IC50 (COLO-824): > 256 nM
IC50 (LAMA-84): 203 nM
IC50 (OMC-1): 120 nM
IC50 (SNB-75): 27.8 nM
IC50 (LNCaP-Clone-FGC): > 256 nM
IC50 (SNU1): > 256 nM
IC50 (DEL): 25.8 nM
IC50 (GOTO): 74.9 nM
IC50 (BB49-HNC): 96.3 nM
IC50 (NCI-H1355): 24.9 nM
IC50 (IST-MES1): 135 nM
IC50 (no-10): 14.8 nM
IC50 (IST-SL1): 147 nM
IC50 (NCI-H226): 213 nM
IC50 (NCI-H2126): > 256 nM
IC50 (SF-268): 42.2 nM
IC50 (TGBC24TKB): > 256 nM
IC50 (NKM-1): 79.1 nM
IC50 (Becker): 47.9 nM
IC50 (DSH1): > 256 nM
IC50 (CCRF-CEM): 47 nM
IC50 (RPMI-8866): 73.8 nM
IC50 (EW-13): > 256 nM
IC50 (NH-12): > 256 nM
IC50 (RCC10RGB): 111 nM
IC50 (NCI-H510A): > 256 nM
IC50 (L-428): 112 nM
IC50 (OVCAR-4): > 256 nM
IC50 (GCIY): > 256 nM
IC50 (MN-60): 149 nM

Cc1ccc(-c2c(C(=O)CCl)n(CCCO)c3ncnc(N)c23)cc1
IC50 (MMAC-SF): > 4000 nM
IC50 (HCC2218): > 4000 nM
IC50 (J-RT3-T3-5): > 4000 nM
IC50 (C2BBe1): 2740 nM
IC50 (HC-1): > 4000 nM
IC50 (ONS-76): > 4000 nM
IC50 (KU812 cell line): > 4000 nM
IC50 (DU-4475): > 4000 nM
IC50 (GI-1): 2700 nM
IC50 (KLE): > 4000 nM
IC50 (NCI-H82): > 4000 nM
IC50 (TE-6): > 4000 nM
IC50 (NCI-H1838): > 4000 nM
IC50 (MZ1-PC): 2920 nM
IC50 (SK-LMS-1): 1400 nM
IC50 (QIMR-WIL): > 4000 nM
IC50 (K5): > 4000 nM
IC50 (NB13): 978 nM
IC50 (KP-N-YS): > 4000 nM
IC50 (COLO-824): > 4000 nM
IC50 (LAMA-84): > 4000 nM
IC50 (OMC-1): > 4000 nM
IC50 (SNB-75): > 4000 nM
IC50 (LNCaP-Clone-FGC): > 4000 nM
IC50 (SNU1): > 4000 nM
IC50 (DEL): > 4000 nM
IC50 (GOTO): > 4000 nM
IC50 (BB49-HNC): > 4000 nM
IC50 (NCI-H1355): > 4000 nM
IC50 (IST-MES1): > 4000 nM
IC50 (no-10): > 4000 nM
IC50 (IST-SL1): > 4000 nM
IC50 (NCI-H226): > 4000 nM
IC50 (NCI-H2126): > 4000 nM
IC50 (SF-268): > 4000 nM
IC50 (TGBC24TKB): > 4000 nM
IC50 (NKM-1): > 4000 nM
IC50 (Becker): > 4000 nM
IC50 (DSH1): > 4000 nM
IC50 (CCRF-CEM): 2930 nM
IC50 (RPMI-8866): > 4000 nM
IC50 (EW-13): > 4000 nM
IC50 (NH-12): > 4000 nM
IC50 (RCC10RGB): > 4000 nM
IC50 (NCI-H510A): > 4000 nM
IC50 (L-428): > 4000 nM
IC50 (OVCAR-4): > 4000 nM
IC50 (GCIY): > 4000 nM
IC50 (MN-60): > 4000 nM

CCC/C=C/C=C/C(=O)O[C@H]1/C(=C/C(=O)OC)C[C@H]2C[C@H]([C@@H](C)O)OC(=O)C[C@H](O)C[C@@H]3C[C@H](OC(C)=O)C(C)(C)[C@](O)(C[C@@H]4C/C(=C/C(=O)OC)C[C@H](/C=C/C(C)(C)[C@]1(O)O2)O4)O3 [BRYOSTATIN 1]
IC50 (MMAC-SF): > 8 nM
IC50 (HCC2218): > 8 nM
IC50 (J-RT3-T3-5): > 8 nM
IC50 (C2BBe1): > 8 nM
IC50 (HC-1): > 8 nM
IC50 (ONS-76): > 8 nM
IC50 (KU812 cell line): > 8 nM
IC50 (DU-4475): > 8 nM
IC50 (GI-1): > 8 nM
IC50 (KLE): > 8 nM
IC50 (NCI-H82): > 8 nM
IC50 (TE-6): > 8 nM
IC50 (NCI-H1838): > 8 nM
IC50 (MZ1-PC): > 8 nM
IC50 (SK-LMS-1): > 8 nM
IC50 (QIMR-WIL): > 8 nM
IC50 (K5): > 8 nM
IC50 (NB13): > 8 nM
IC50 (KP-N-YS): > 8 nM
IC50 (COLO-824): > 8 nM
IC50 (LAMA-84): > 8 nM
IC50 (OMC-1): > 8 nM
IC50 (SNB-75): > 8 nM
IC50 (LNCaP-Clone-FGC): > 8 nM
IC50 (SNU1): > 8 nM
IC50 (DEL): > 8 nM
IC50 (GOTO): > 8 nM
IC50 (BB49-HNC): > 8 nM
IC50 (NCI-H1355): > 8 nM
IC50 (IST-MES1): > 8 nM
IC50 (no-10): > 8 nM
IC50 (IST-SL1): > 8 nM
IC50 (NCI-H226): > 8 nM
IC50 (NCI-H2126): > 8 nM
IC50 (SF-268): > 8 nM
IC50 (TGBC24TKB): > 8 nM
IC50 (NKM-1): > 8 nM
IC50 (Becker): > 8 nM
IC50 (DSH1): > 8 nM
IC50 (CCRF-CEM): > 8 nM
IC50 (RPMI-8866): > 8 nM
IC50 (EW-13): > 8 nM
IC50 (NH-12): > 8 nM
IC50 (RCC10RGB): > 8 nM
IC50 (NCI-H510A): > 8 nM
IC50 (L-428): > 8 nM
IC50 (OVCAR-4): > 8 nM
IC50 (GCIY): > 8 nM
IC50 (MN-60): > 8 nM
